Here are results for one compound from patent publication US6425888B1, “Ocular treatment device” (R. P. Scherer Corporation, priority 1994, dated 2002).

Molecules are shown by their SMILES. Structures can show the parent of a compound that is named as a salt.

For this experiment, the system named is rabbits. Briefly: Miotic response (pupil diameter) of rabbits after a single spray from the blister crushing device of FIG. 18. The class given is in vivo, rabbit. To be noted: left eye, mean of 5 rabbits. The text has this: The device of FIG. 18 was used in a study of the ocular response of rabbits to treatment according to the invention. The rabbits selected for the study were allowed to acclimatise for 4-5 days prior to treatment. They were subjected to manual restraining for 2 days prior to the study to condition them to the procedures involved in dosing. A device of the kind illustrated in FIG. 18 was then used to administer a single spray of isotonic 2% Pilocarpine hydrochloride (Pilocarpine HCl) solution to the corneal surface of the left eve of each of 5 rabbits, the right eyes remaining undosed. The following settings were used: 100 μm nozzle diameter 2.5 cm distance between nozzle tip and animal eye Sprays targeted towards the centre of the cornea of the animal eye The miotic response (reduction in pupil diameter) at various intervals following the application of the pilocarpine HCl solution was monitored under constant illumination using video photography. The pupil diameter of the left eye was expressed in proportion to the diameter of a fixed reference aperture situated at an equal distance from the video camera. The actual diameter was then calculated from the known diameter of the reference aperture.

Consider `CC[C@@H]1C(=O)OC[C@@H]1Cc1cncn1C` [Pilocarpine HCl, Pilocarpine hydrochloride], for which the “Pupil Diameter” value is, setting by setting: (+15 min after dose) 6.7 mm; (+30 min after dose) 6.8 mm; (+45 min after dose) 6.9 mm; (+1 hr after dose) 6.8 mm; (+1.5 hr after dose) 6.9 mm; (+2 hr after dose) 7.3 mm. Besides, the “Pupil Diameter” value was 7.8 mm (+2.5 hr after dose); 7.9 mm (+3 hr after dose); 8.0 mm (+3.5 hr after dose); 7.8 mm (+4 hr after dose); 7.8 mm (Dose (0 min), single spray of isotonic 2% solution to cornea).
